The pIC50 is −log10 of the IC50, conventionally taken in molar units. A higher pIC50 goes with a small IC50.

Data on 21 compounds can be found in patent US20240199587A1, “HETEROCYCLIC COMPOUNDS” (Hoffmann-La Roche Inc., priority 2021, published 2024).

pIC50: −log10 of the molar value.

In the test the target is T1, MAGL (Homo sapiens, UniProt Q99685).
T1 sequence (Q99685 1-303): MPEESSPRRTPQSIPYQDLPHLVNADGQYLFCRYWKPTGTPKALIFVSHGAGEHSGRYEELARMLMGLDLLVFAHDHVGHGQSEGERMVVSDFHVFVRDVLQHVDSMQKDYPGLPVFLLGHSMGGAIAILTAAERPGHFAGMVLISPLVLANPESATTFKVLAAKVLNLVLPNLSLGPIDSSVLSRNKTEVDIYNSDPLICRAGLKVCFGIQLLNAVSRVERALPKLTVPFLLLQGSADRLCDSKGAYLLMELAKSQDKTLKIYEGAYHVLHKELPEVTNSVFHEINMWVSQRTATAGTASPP
Put plainly: 2-AG assay (MAGL inhibitory activity, hydrolysis of 2-arachidonoylglycerol to arachidonic acid followed by mass spectrometry). The format is biochemical. The conditions noted are these: 8 μM 2-arachidonoylglycerol, 15 min pre-incubation, 30 min incubation at RT, RapidFire MS readout. The procedure, abridged: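 Human MAGL ([…] final) pre-incubated 15 min at RT with compound in 50 mM TRIS, 1 mM EDTA, 0.01% Tween-20, 2.5% DMSO; 8 μM 2-AG then added for 30 min at RT. Acetonitrile quench with d8-arachidonic acid; arachidonic acid measured by RapidFire SPE–MS/MS, activity from arachidonic acid/d8 ratio.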
As for `O=C(N1CC2(CC(Cc3ccc(C(F)(F)F)nc3)C2)C1)N1CC2(CC(n3cnc(C4(O)CC4)n3)C2)C1` [Example 495, [6-[3-(1-hydroxycyclopropyl)-1,2,4-triazol-1-yl]-2-azaspiro[3.3]heptan-2-yl]-[6-[[6-(trifluoromethyl)-3-pyridyl]methyl]-2-azaspiro[3.3]heptan-2-yl]methanone], the pIC50 is 9.01.
To `O=C(N1CC(c2ccc(N3CC(C(F)(F)F)C3)nc2)C1)N1CC2(CC(n3cnc(C4(O)CC4)n3)C2)C1` [Example 496, [6-[3-(1-hydroxycyclopropyl)-1,2,4-triazol-1-yl]-2-azaspiro[3.3]heptan-2-yl]-[3-[6-[3-(trifluoromethyl)azetidin-1-yl]-3-pyridyl]azetidin-1-yl]methanone] belongs 8.03; to `O=C(N1CC2(CC(n3cnc(C4(O)CC4)n3)C2)C1)N1CC2(C1)CN(S(=O)(=O)c1cccc(OC(F)(F)F)c1)C2` [Example 497, [6-[3-(1-hydroxycyclopropyl)-1,2,4-triazol-1-yl]-2-azaspiro[3.3]heptan-2-yl]-[2-[3-(trifluoromethoxy)phenyl]sulfonyl-2,6-diazaspiro[3.3]heptan-6-yl]methanone], 7.08; to `O=C(N1CC(OCc2cccc(S(=O)(=O)C(F)(F)F)c2)C1)N1CC2(CC(n3cnc(C4CC4)n3)C2)C1` [Example 498, [6-(3-cyclopropyl-1,2,4-triazol-1-yl)-2-azaspiro[3.3]heptan-2-yl]-[3-[[3-(trifluoromethylsulfonyl)phenyl]methoxy]azetidin-1-yl]methanone], 8.77.
Then `O=C(N1CC(OCc2ccc(S(=O)(=O)C(F)(F)F)cc2)C1)N1CC2(CC(n3cnc(C4CC4)n3)C2)C1` [Example 499, [6-(3-cyclopropyl-1,2,4-triazol-1-yl)-2-azaspiro[3.3]heptan-2-yl]-[3-[[4-(trifluoromethylsulfonyl)phenyl]methoxy]azetidin-1-yl]methanone], with 8.36.
Consider `CS(=O)(=O)c1ccc(CN2CC3(C2)CN(C(=O)N2CC4(CC(n5cnc(C6CC6)n5)C4)C2)C3)cc1` [Example 500, [6-(3-cyclopropyl-1,2,4-triazol-1-yl)-2-azaspiro[3.3]heptan-2-yl]-[6-[(4-methylsulfonylphenyl)methyl]-2,6-diazaspiro[3.3]heptan-2-yl]methanone], for which the pIC50 was 7.40.
Then `CS(=O)(=O)c1cccc(CN2CC3(C2)CN(C(=O)N2CC4(CC(n5cnc(C6CC6)n5)C4)C2)C3)c1` [Example 501, [6-(3-cyclopropyl-1,2,4-triazol-1-yl)-2-azaspiro[3.3]heptan-2-yl]-[6-[(3-methylsulfonylphenyl)methyl]-2,6-diazaspiro[3.3]heptan-2-yl]methanone], with 8.17; and `CS(=O)(=O)c1ccccc1CN1CC2(C1)CN(C(=O)N1CC3(CC(n4cnc(C5CC5)n4)C3)C1)C2` [Example 502, [6-(3-cyclopropyl-1,2,4-triazol-1-yl)-2-azaspiro[3.3]heptan-2-yl]-[6-[(2-methylsulfonylphenyl)methyl]-2,6-diazaspiro[3.3]heptan-2-yl]methanone], with 7.92.
Then `NC(=O)C1CC(F)(F)CCN1c1ccc(C2CN(C(=O)N3CC4(CC(n5cnc(C6CC6)n5)C4)C3)C2)cc1` (stereo not drawn) [Example 503, 1-[4-[1-[6-(3-cyclopropyl-1,2,4-triazol-1-yl)-2-azaspiro[3.3]heptane-2-carbonyl]azetidin-3-yl]phenyl]-4,4-difluoro-piperidine-2-carboxamide], with 8.82; and `CC1(O)CN(c2ccc(C3CN(C(=O)N4CC5(CC(n6cnc(C7CC7)n6)C5)C4)C3)cn2)C1` [Example 504, [6-(3-cyclopropyl-1,2,4-triazol-1-yl)-2-azaspiro[3.3]heptan-2-yl]-[3-[6-(3-hydroxy-3-methyl-azetidin-1-yl)-3-pyridyl]azetidin-1-yl]methanone], with 7.86.
`O=C(N1CC(c2ccc(NC3CCS(=O)(=O)C3)nc2)C1)N1CC2(CC(n3cnc(C4CC4)n3)C2)C1` (stereo not drawn) [Example 505, [6-(3-cyclopropyl-1,2,4-triazol-1-yl)-2-azaspiro[3.3]heptan-2-yl]-[3-[6-[(1,1-dioxothiolan-3-yl)amino]-3-pyridyl]azetidin-1-yl]methanone]: the pIC50 is 7.49.
`O=C(N1CCC(Oc2cccc(F)c2)CC1)N1CC2(CC(n3cnc(C4CC4)n3)C2)C1` [Example 506, [6-(3-cyclopropyl-1,2,4-triazol-1-yl)-2-azaspiro[3.3]heptan-2-yl]-[4-(3-fluorophenoxy)-1-piperidyl]methanone]: the negative-log IC50 (pIC50) was 7.12.
The compound `O=C(N1CC(c2ccc(C3CCC3)cc2)C1)N1CC2(CC(n3cnc(C4CC4)n3)C2)C1` [Example 507, [3-(4-cyclobutylphenyl)azetidin-1-yl]-[6-(3-cyclopropyl-1,2,4-triazol-1-yl)-2-azaspiro[3.3]heptan-2-yl]methanone] gave a pIC50 of 9.29.
Then `Cc1cccc(F)c1CCC1CN(C(=O)N2CC3(CC(n4cnc(C5CC5)n4)C3)C2)C1` [Example 508, [6-(3-cyclopropyl-1,2,4-triazol-1-yl)-2-azaspiro[3.3]heptan-2-yl]-[3-[2-(2-fluoro-6-methyl-phenyl)ethyl]azetidin-1-yl]methanone], with 6.19; and `O=C(N1CC(/C=C/c2cccc(F)c2)C1)N1CC2(CC(n3cnc(C4CC4)n3)C2)C1` [Example 509, [6-(3-cyclopropyl-1,2,4-triazol-1-yl)-2-azaspiro[3.3]heptan-2-yl]-[3-[(E)-2-(3-fluorophenyl)vinyl]azetidin-1-yl]methanone], with 7.39; and `O=C(N1CC2(CC(n3cnc(C4CC4)n3)C2)C1)N1CC2(CC(n3cnc(C4CC4)n3)C2)C1` [Example 510, bis[6-(3-cyclopropyl-1,2,4-triazol-1-yl)-2-azaspiro[3.3]heptan-2-yl]methanone], with 8.34.
Compound `O=C(N1CC2(CCC(Cc3ccc(OC(F)F)nc3)CC2)C1)N1CC2(CC(c3cncc(F)c3)C2)C1` [Example 511, [7-[[6-(difluoromethoxy)-3-pyridyl]methyl]-2-azaspiro[3.5]nonan-2-yl]-[6-(5-fluoro-3-pyridyl)-2-azaspiro[3.3]heptan-2-yl]methanone] showed a pIC50 of 6.78.
Then `O=C(N1CC(Oc2ccc(C(F)(F)F)c(C3CC3)c2)C1)N1CC2(CC(c3cncc(F)c3)C2)C1` [Example 512], with 6.45; and `O=C(N1CC(OCc2ccc(F)cc2Cl)C1)N1CC2(CC(c3cncc(F)c3)C2)C1` [Example 513, [3-[(2-chloro-4-fluoro-phenyl)methoxy]azetidin-1-yl]-[6-(5-fluoro-3-pyridyl)-2-azaspiro[3.3]heptan-2-yl]methanone], with 5.63.
For `O=C(N1CC(NCc2ccc(C(F)(F)F)cc2Cl)C1)N1CC2(CC(c3cncc(F)c3)C2)C1` [Example 514, [3-[[2-chloro-4-(trifluoromethyl)phenyl]methylamino]azetidin-1-yl]-[6-(5-fluoro-3-pyridyl)-2-azaspiro[3.3]heptan-2-yl]methanone], the negative logarithm of the IC50 (pIC50) is 7.05. Against the preceding compound, the pIC50 is 1.42 log units higher.
To `O=C(N1CC2(CC(Cc3ccc(C(F)(F)F)nc3)C2)C1)N1CC2(CC(c3cncc(F)c3)C2)C1` [Example 515, [6-(5-fluoro-3-pyridyl)-2-azaspiro[3.3]heptan-2-yl]-[6-[[6-(trifluoromethyl)-3-pyridyl]methyl]-2-azaspiro[3.3]heptan-2-yl]methanone] belongs 7.02.
